For data set [1], the system named is Mycolicibacterium fortuitum. The data set is described as follows: Antibacterial activity against Mycobacterium fortuitum ATCC 6841. The format is functional.
Data set [2] deals with Mycolicibacterium smegmatis. In words: Antibacterial activity against Mycolicibacterium smegmatis MC2 2700. Format: functional.
Data set [3] concerns Mycolicibacterium smegmatis. In words: Antibacterial activity against Mycobacterium smegmatis ATCC 14468. Format: functional.
Data set [4] concerns Staphylococcus aureus. In words: Antibacterial activity against Staphylococcus aureus XU212. Format: functional.
Data set [5] concerns Staphylococcus aureus. In words: Antibacterial activity against Staphylococcus aureus EMRSA-15. Format: functional.
The next data set has as its system Mycolicibacterium phlei. The data set is described as follows: Antibacterial activity against Mycolicibacterium phlei ATCC 11758. Format: functional.
Data set [6] concerns Staphylococcus aureus. The data set is described as follows: Antibacterial activity against Staphylococcus aureus 1199B. Format: functional.
For another data set, the system named is Micrococcus luteus. In words: Antibacterial activity against Sarcina lutea. The format is functional.
Data set [7] deals with Human immunodeficiency virus 1. The data set is described as follows: Antiviral activity against HIV1 IIIB infected in human C8166 cells assessed as reduction in virus-induced cytopathic effect measured after 3 days by Syncytia assays. The format is functional, organism-based. The conditions noted are these: Human immunodeficiency virus 1, IIIB, C8166, 72 h. Background: Cytopathic effects are the visible damage that an infection or toxin causes in cultured cells.

The next data set relates to dengue virus type 2. In words: Antiviral activity against DENV-2 strain New Guinea C infected in Vero cells assessed as reduction in virus yield measured after 48 hrs. Format: functional, organism-based.
Another data set concerns HL-60. In words: Cytotoxicity against human HL-60 cells. Format: functional, cell-based.
Data set [8] concerns Plasmodium falciparum. The data set is described as follows: Antimalarial activity against Plasmodium falciparum. The format is functional, organism-based.
Data set [9] has as its system Trypanosoma brucei brucei. In words: Antitrypanosomal activity against Trypanosoma brucei brucei. Format: functional, organism-based.
The test system of the next data set is Cryptococcus neoformans. In words: Antimicrobial activity against Cryptococcus neoformans. Format: functional.
Another data set concerns Candida albicans. In words: Antimicrobial activity against Candida albicans. Format: functional.
The test system of data set [10] is Staphylococcus aureus. In words: Antimicrobial activity against Staphylococcus aureus. Format: functional.
Another data set concerns Bacillus subtilis. In words: Antibacterial activity against Bacillus subtilis. The format is functional.
Another data set deals with Corynebacterium xerosis. In words: Antibacterial activity against Corynebacterium xerosis. Format: functional.
Data set [11] concerns Human immunodeficiency virus 1. The data set is described as follows: Antiviral activity against HIV1. The format is functional, organism-based.
The target in the next data set is Alpha-glucosidase (Saccharomyces cerevisiae S288c, UniProt P53341+P38158+P07265). The data set is described as follows: Inhibition of Saccharomyces cerevisiae alpha-glucosidase activity using pNPG as substrate. The format is protein assay.
For another data set, the system named is MDA-MB-231. The data set is described as follows: Cytotoxicity against human MDA-MB-231 cells. The format is functional, cell-based.
A further data set has as its system KB. In words: Cytotoxicity against human KB cells. The format is functional. Particulars: read-out: ED50 (the source's name).
A short description of data set [12]: Selectivity index, ratio of IC50 for cytotoxicity against rat L6 cells to IC50 for Antimalarial activity against Plasmodium falciparum K1 strain. Format: toxicity, cell-based. The conditions noted are these: read-out: Selectivity Index.
The subject of data set [13] is Plasmodium falciparum. In words: Antimalarial activity against Plasmodium falciparum K1 strain. The format is functional, organism-based.

In brackets after ≈: the same amount, converted by molar mass.

As a reminder, the MIC is the lowest concentration found to suppress growth. The low end stands for greater potency, the high end for weaker potency. Consider `N=C(N)NCCC[C@H]1NCCc2c1[nH]c1cc(Br)ccc21`, for which the MIC is 16 µg/mL (≈ 45.7 µM) in [1]; 2 µg/mL (≈ 5.71 µM) in [2]; 16 µg/mL (≈ 45.7 µM) in data set [3]; 8 µg/mL (≈ 22.8 µM) against Staphylococcus aureus [4]; 64 µg/mL (≈ 183 µM) in the data set on Staphylococcus aureus [5]; 8 µg/mL (≈ 22.8 µM) with Mycolicibacterium phlei. Also, the lowest concentration to inhibit growth against Staphylococcus aureus [6] (MIC) was 16 µg/mL (≈ 45.7 µM).

With `Oc1cccc2c1[nH]c1c(C3=C[C@@]4(O)CC/C=C\CCCCN5CC[C@@H]3[C@]3(C[C@@H]6/C=C\CCCCN6[C@H]34)C5)nccc12`, the lowest concentration to inhibit growth in the data set with Micrococcus luteus (MIC) was 0.91 µg/mL (≈ 1.61 µM).

In the case of `NC(=O)c1cc2c([nH]c3ccccc32)c(-c2ccc(CO)o2)n1`, the EC50 in data set [7] was 380 nM.

As for `COc1ccc2c3ccnc(C)c3n(C)c2c1`, the EC50 in the data set with dengue virus type 2 turned out to be 3200 nM.

As a reminder, the IC50 is the midpoint of a concentration-inhibition curve. As to `COc1ccc2c3c([nH]c2c1)[C@]12CC(C)(C)[C@@]4(C(=O)N1CC3)c1[nH]c3cc(OC)ccc3c1CCN24`, the midpoint of inhibition with HL-60, the IC50, lay at 5800 nM.

With `O[C@]12C=C(C3c4[nH]c5ccccc5c4CCN3CCc3nccc4c3[nH]c3ccccc34)[C@@H]3CCN(CCCC/C=C\CC1)C[C@@]31C[C@@H]3/C=C\CCCCN3[C@H]12` (some centres undefined), the IC50 in the data set with Plasmodium falciparum [8] turned out to be 0.58 µg/mL (≈ 0.776 µM); in data set [9] it was 0.27 µg/mL (≈ 0.361 µM).

`CSc1c(C2=C(c3c[nH]c4ccc(O)cc34)C(=O)N3c4ccc(O)cc4C4C=C(C(=O)O)N=C2C43)n(C)c[n+]1C` (centres undefined): the MIC in the data set with Cryptococcus neoformans, with Candida albicans and against Staphylococcus aureus [10] was 8 µg/mL each time.

Take `O[C@H]1[C@H]2[C@@H]3c4[nH]c5ccccc5c4CCN3CN3CCCC/C=C\CC[C@@]45CN(CCCC/C=C\CC[C@@]1(O)[C@H]34)CC[C@@H]25`: the MIC against Micrococcus luteus amounted to 2.8 µg/mL (≈ 4.79 µM); in the data set with Bacillus subtilis, 2.8 µg/mL (≈ 4.79 µM); with Corynebacterium xerosis it was 5.7 µg/mL (≈ 9.75 µM).

For `Oc1cccc2c3c([nH]c12)C(C1=C[C@@]2(O)CC/C=C\CCCCN4CC[C@@H]1[C@]1(C[C@@H]5/C=C\CCCCN5[C@H]12)C4)=NCC3`, in the data set with Micrococcus luteus, inhibition of growth (MIC) required 4 µg/mL (≈ 7.06 µM).

`Oc1ccc2[nH]c3c(C4=C[C@@]5(O)CC/C=C\CCCCN6CC[C@@H]4[C@@]4(C6)C[C@@]67CCC(CCCN6[C@H]45)O7)nccc3c2c1`: the IC50 in data set [11] stood at 2300 nM.

As to `CSc1c(C2=C(c3c[nH]c4ccc(O)cc34)C(=O)N3c4ccc(O)cc4C4C=CN=C2C43)n(C)c[n+]1C` (centres undefined), the MIC in the data set with Cryptococcus neoformans, against Candida albicans and in the data set on Staphylococcus aureus [10] was 4 µg/mL in each case.

As for `O=C(CO)CCC(=O)c1nc(C(=O)O)cc2c1[nH]c1ccccc12`, at Alpha-glucosidase, the IC50 was 63.3 µg/mL (≈ 194 µM).

`O=c1ccc2nccc3c4ccccc4n1c23` [CANTHIN-6-ONE]: the MIC in [1] was 16 µg/mL (≈ 72.7 µM); in [2], 8 µg/mL (≈ 36.3 µM); in [3], 8 µg/mL (≈ 36.3 µM); against Staphylococcus aureus [4] it was 8 µg/mL (≈ 36.3 µM); against Staphylococcus aureus [5], 32 µg/mL (≈ 145 µM); with Mycolicibacterium phlei it was 8 µg/mL (≈ 36.3 µM). For the same compound, the MIC with Staphylococcus aureus [6] is 8 µg/mL (≈ 36.3 µM).

As for `CC(C)CC(N)c1nccc2c1[nH]c1cc(Br)ccc12` (centres undefined) [EUDISTALBIN A], half-maximal inhibition in the data set with MDA-MB-231 (IC50) was put at 2100 nM. In the data set with KB, the EC50 is under 3.2 µg/mL.

Turning to `O=C(O)c1cc2c([nH]c3ccccc32)c(-c2ccc(CO)o2)n1` [FLAZINE], the IC50 in [7] came out at 2370 nM.

The compound `O[C@]12C=C(c3nccc4c3[nH]c3ccccc34)[C@@H]3CCN(CCCC/C=C\CC1)C[C@@]31C[C@@H]3/C=C\CCCCN3[C@H]12` [MANZAMINE A] showed an IC50 in data set [11] of 4200 nM.

In the data set on Micrococcus luteus, `Oc1ccc2[nH]c3c(C4=C[C@@]5(O)CC/C=C\CCCCN6CC[C@@H]4[C@]4(C[C@@H]7/C=C\CCCCN7[C@H]45)C6)nccc3c2c1` [MANZAMINE Y] registered an MIC of 0.25 µg/mL (≈ 0.443 µM).

Regarding `C[n+]1ccc2c(c1)[nH]c1ccc(Cl)cc12` [NOSTOCARBOLINE], the selectivity ratio in data set [12] amounted to 2500. In addition, the IC50 in the data set with Plasmodium falciparum [13] is 18 nM.
